ChEMBL document CHEMBL6087476, “Positive Charge-Concentrated Dimeric Lipopeptides with Enhanced Protease Resistance: A Potential Solution for Systemic Bacterial Infections” (J Med Chem, 2025)
Values after ≈ are worked out from the molar mass of the structure shown. Active and inactive are the calls of the source. The calls are words filed in the database; no cut-off is given here.

Assays:
Enterococcus faecalis = assay: Antimicrobial activity against Enterococcus faecalis 29212 assessed as increase in absorbance incubated for 20 to 22 hrs; type: functional; details: time 20-22 hrs
[1] = tested on: Staphylococcus epidermidis; assay: Antimicrobial activity against Staphylococcus epidermidis 12228 assessed as increase in absorbance incubated for 20 to 22 hrs; type: functional; details: time 20-22 hrs
[2] = Toxicity in ICR mouse assessed as slight manifestation of stooping at 20 mg/kg, ip measured within 1 hr; type: organism-based; details: in vivo
[3] = Toxicity in ICR mouse assessed as alanine aminotransferase (ALT) level in serum at 5 to 20 mg/kg, ip measured after 3 days; type: organism-based; details: in vivo, 72 h, dose 5-20 mg/kg, time 3 day
[4] = Toxicity in ICR mouse assessed as hepatic cords morphology at 5 to 20 mg/kg, ip measured after 3 days by histopathological H and E staining based assay; type: organism-based; details: in vivo, 72 h, dose 5-20 mg/kg, time 3 day
RAW264.7 = assay: Cytotoxicity against mouse RAW264.7 cells assessed as cell death measured after 18 to 24 hrs by MTT assay; type: functional; details: time 18-24 hrs
[5] = Toxicity in ICR mouse assessed as aspartate aminotransferase (AST) level in serum at 5 to 20 mg/kg, ip measured after 3 days; type: organism-based; details: in vivo, 72 h, dose 5-20 mg/kg, time 3 day
Escherichia coli [6] = assay: Induction of membrane damage in Escherichia coli ATCC 25922 assessed as damaged membrane surface by analysing leakage (hollow interiors) at 8 uM measured after 1 hr incubation by TEM analysis; type: functional, organism-based
Staphylococcus aureus [7] = assay: Antimicrobial activity against Staphylococcus aureus 25923 assessed as increase in absorbance incubated for 20 to 22 hrs; type: functional; details: time 20-22 hrs
Escherichia coli [8] = assay: Antibiofilm activity against Escherichia coli ATCC 25922 biofilm assessed as removal of matured biofilm at 16 uM; type: functional, organism-based
[9] = Stability of compound assessed as pepsin (unknown origin)-mediated compound structural integrity change at 8 mg/ml incubated for 1 to 8 hrs by 16.5% tricine-SDS-PAGE analysis; type: ADME; details: human, time 1-8 hrs
Escherichia coli [10] = assay: Inhibition of respiratory chain dehydrogenase (RCD) activity in Escherichia coli ATCC 25922 at 4 uM incubated for 90 mins by TTC assay
Escherichia coli [11] = assay: Antimicrobial activity against Escherichia coli K99 assessed as increase in absorbance incubated for 20 to 22 hrs; type: functional; details: time 20-22 hrs
Escherichia coli [12] = assay: Induction of membrane damage in Escherichia coli ATCC 25922 assessed as ruptured membrane by analysing red fluorescence at 8 uM measured after 1 hr incubation by PI - live and dead staining based fluorescence microscopy; type: functional, organism-based
Escherichia coli [13] = assay: Antibacterial activity against Escherichia coli ATCC 25922 injected intraperitoneally in ICR mouse assessed as reduction in symptoms by measuring atrophied red medulla in spleen at 10 mg/kg, ip measured after 12 hrs by H and E staining based assay; type: functional, organism-based
Lipopolysaccharide (LPS) = assay: Binding affinity to Escherichia coli O111:B4 Lipopolysaccharide by fluorescent probe BODIPYTR-cadaverine (BC) assay; details: dose 1-16 µM
Salmonella typhimurium = assay: Antimicrobial activity against Salmonella typhimurium 14028 assessed as increase in absorbance incubated for 20 to 22 hrs; type: functional, Salmonella enterica subsp. enterica serovar Typhimurium; details: Salmonella enterica, time 20-22 hrs
Escherichia coli [14] = assay: Antimicrobial activity against Escherichia coli ATCC 25922 assessed as increase in absorbance incubated for 20 to 22 hrs; type: functional; details: time 20-22 hrs
Escherichia coli [15] = assay: Antimicrobial activity against Escherichia coli ATCC 25922 assessed as increase in absorbance incubated for 4 hrs in presence of 12.5% serum; type: functional, organism-based
Escherichia coli [16] = assay: Bactericidal activity against Escherichia coli ATCC 25922 assessed as reduction in bacterial viability; type: functional, organism-based
Escherichia coli [17] = assay: Antimicrobial activity against Escherichia coli ATCC 25922 assessed as increase in absorbance incubated for 20 to 22 hrs in presence of NH4+ physiological salt; type: functional, organism-based; details: time 20-22 hrs
Escherichia coli [18] = assay: Antibiofilm activity against Escherichia coli ATCC 25922 biofilm assessed as inhibition of biofilm formation at 2 uM; type: functional, organism-based
Escherichia coli [19] = assay: Antibacterial activity against Escherichia coli ATCC 25922 injected intraperitoneally in ICR mouse assessed as reduction bacterial load in liver at 10 mg/kg, ip measured after 12 hrs by H and E staining based assay; type: functional, organism-based
[20] = Toxicity in ICR mouse assessed as body weight change at 5 to 20 mg/kg, ip measured after 3 days; type: organism-based; details: in vivo, 72 h, dose 5-20 mg/kg, time 3 day
Escherichia coli [21] = assay: Antibacterial activity against Escherichia coli ATCC 25922 injected intraperitoneally in ICR mouse assessed as reduction in symptoms by measuring thickened respiratory membrane in lung at 10 mg/kg, ip measured after 12 hrs by H and E staining based assay; type: functional, organism-based
Escherichia coli [22] = assay: Antimicrobial activity against Escherichia coli ATCC 25922 assessed as increase in absorbance incubated for 4 hrs in presence of 50% serum; type: functional, organism-based
Escherichia coli [23] = assay: Antibacterial activity against Escherichia coli ATCC 25922 injected intraperitoneally in ICR mouse assessed as reduction bacterial load in spleen at 10 mg/kg, ip measured after 12 hrs by H and E staining based assay; type: functional, organism-based
Escherichia coli [24] = assay: Antimicrobial activity against Escherichia coli ATCC 25922 assessed as increase in absorbance incubated for 20 to 22 hrs in presence of Mg2+ physiological salt; type: functional, organism-based; details: time 20-22 hrs
Escherichia coli [25] = assay: Antibacterial activity against Escherichia coli ATCC 25922 injected intraperitoneally in ICR mouse assessed as reduction bacterial load in lung at 10 mg/kg, ip measured after 12 hrs by H and E staining based assay; type: functional, organism-based
[26] = Toxicity in ICR mouse assessed as humpbacking at 20 mg/kg, ip measured after 1 hr; type: organism-based; details: in vivo
[27] = Toxicity in ICR mouse assessed as reduced mobility at 20 mg/kg, ip measured within 1 hr; type: organism-based; details: in vivo
[28] = Toxicity in ICR mouse assessed as kidney weight change at 5 to 20 mg/kg, ip measured after 3 days; type: organism-based; details: in vivo, 72 h, dose 5-20 mg/kg, time 3 day
Escherichia coli [29] = assay: Antimicrobial activity against Escherichia coli ATCC 25922 assessed as increase in absorbance incubated for 20 to 22 hrs in presence of […] physiological salt; type: functional, organism-based; details: time 20-22 hrs
Staphylococcus aureus [30] = assay: Antimicrobial activity against methicillin-resistant Staphylococcus aureus 43300 assessed as increase in absorbance incubated for 20 to 22 hrs; type: functional; details: time 20-22 hrs
Trypsin = Trypsin (Homo sapiens, UniProt P07477+P07478+P35030); assay: Stability of compound assessed as trypsin (unknown origin)-mediated compound structural integrity change at 8 mg/ml incubated for 1 to 8 hrs by 16.5% tricine-SDS-PAGE analysis; type: ADME, protein assay; details: time 1-8 hrs
Escherichia coli [31] = assay: Bactericidal activity against Escherichia coli ATCC 25922 assessed as reduction in bacterial viability at 4 uM measured within 2 hrs; type: functional, organism-based
Mus musculus = assay: Anti-inflammatory activity against Escherichia coli ATCC 25922-induced peritonitis ICR mouse model assessed as decrease in TNF-alpha level in serum spleen at 10 mg/kg, ip measured after 12 hrs; type: functional, organism-based
[32] = Toxicity in ICR mouse assessed as humpbacking at 20 mg/kg, ip measured within 1 hr; type: organism-based; details: in vivo
Staphylococcus aureus [33] = assay: Antimicrobial activity against Staphylococcus aureus 11011 assessed as increase in absorbance incubated for 20 to 22 hrs; type: functional; details: time 20-22 hrs
Escherichia coli [34] = assay: Induction of ROS accumulation in Escherichia coli ATCC 25922 at 4 uM incubated for 30 mins by DCFH-DA assay; type: functional, organism-based

CCCCCCCCCC(=O)NCCCC[C@H](N)C(=O)NCC(=O)NCC(=O)NCC(=O)N[C@H](CCCNC(=N)N)C(=O)N[C@@H](CCCNC(=N)N)C(=O)N[C@@H](CCCNC(=N)N)C(=O)N1CCC[C@H]1C(=O)N[C@@H](CSSC[C@H](NC(=O)[C@@H]1CCCN1C(=O)[C@H](CCCNC(=N)N)NC(=O)[C@H](CCCNC(=N)N)NC(=O)[C@@H](CCCNC(=N)N)NC(=O)CNC(=O)CNC(=O)CNC(=O)[C@@H](N)CCCCNC(=O)CCCCCCCCC)C(=O)O)C(=O)O
MIC (Enterococcus faecalis): 4 µM (≈ 9.12 µg/mL)
MIC [1]: 8 µM (≈ 18.2 µg/mL)
Activity [2]: Toxic
Activity [3]: Non-toxic
Activity [4]: Non-toxic
IC10 (RAW264.7): 256 µM
Activity [5]: Non-toxic
Activity (Escherichia coli [6]): Active
MIC (Staphylococcus aureus [7]): 4 µM (≈ 9.12 µg/mL)
Activity (Escherichia coli [8]): Active
Stability [9]: Stable
inhibition (Escherichia coli [10]): Active
MIC (Escherichia coli [11]): 4 µM (≈ 9.12 µg/mL)
Activity (Escherichia coli [12]): Active
Activity (Escherichia coli [13]): Active
Activity (Lipopolysaccharide (LPS)): Dose-dependent-effect
MIC (Salmonella typhimurium): 4 µM (≈ 9.12 µg/mL)
MIC (Escherichia coli [14]): 4 µM (≈ 9.12 µg/mL)
Activity (Escherichia coli [15]): Active
Activity (Escherichia coli [16]): Dose-dependent-effect
Activity (Escherichia coli [17]): Active; C-C10)C-C Demonstrated Superior Physiological Salt Tolerance In Comparison To (N-C10)C-C
Activity (Escherichia coli [18]): Active
Activity (Escherichia coli [19]): Active
Activity [20]: Non-toxic
Activity (Escherichia coli [21]): Active
Activity (Escherichia coli [22]): Active
Activity (Escherichia coli [23]): Active
Activity (Escherichia coli [24]): Active; C-C10)C-C Demonstrated Superior Physiological Salt Tolerance In Comparison To (N-C10)C-C
Activity (Escherichia coli [25]): Active
Activity [26]: Non-toxic
Activity [27]: Toxic
Activity [28]: Non-toxic
Activity (Escherichia coli [29]): Active; C-C10)C-C Demonstrated Superior Physiological Salt Tolerance In Comparison To (N-C10)C-C
MIC (Staphylococcus aureus [30]): 4 µM (≈ 9.12 µg/mL)
Stability (Trypsin): Stable
Activity (Escherichia coli [31]): inactive
Activity (Mus musculus): Active
Activity [32]: Toxic
MIC (Staphylococcus aureus [33]): 8 µM (≈ 18.2 µg/mL)
Activity (Escherichia coli [34]): Active
